Data: ChEMBL document CHEMBL5705898 (Proc Natl Acad Sci U S A, 2014)
≈ marks a conversion by molar mass, not a printed value.

Tests used:
[1] = biological target: Tyrosine-protein kinase ABL1 (Homo sapiens) (UniProt P00519); assay: Inhibition of human Abl kinase at 10 uM relative to control
[2] = biological target: Glucocorticoid receptor (Homo sapiens) (UniProt P04150); assay: Inhibition of human GR at 10 uM relative to control
[3] = biological target: Mu-type opioid receptor (Homo sapiens) (UniProt P35372); assay: Inhibition of human mu opioid receptor at 10 uM relative to control
[4] = biological target: 5-hydroxytryptamine receptor 1A (Homo sapiens) (UniProt P08908); assay: Inhibition of human 5-HT1A receptor at 10 uM relative to control
[5] = biological target: xanthine oxidase (Xanthine dehydrogenase/oxidase) (Homo sapiens, UniProt P47989); assay: Inhibition of xanthine oxidase (unknown origin) at 10 uM relative to control
[6] = biological target: Tyrosine-protein kinase Lyn (Homo sapiens) (UniProt P07948); assay: Inhibition of human Lyn A kinase at 10 uM relative to control
[7] = biological target: Tyrosine-protein kinase Fyn (Homo sapiens) (UniProt P06241); assay: Inhibition of human Fyn kinase at 10 uM relative to control
[8] = biological target: Sodium-dependent serotonin transporter (Homo sapiens) (UniProt P31645); assay: Inhibition of human 5-HT transporter at 10 uM relative to control
Homo sapiens [9] = organism: Homo sapiens; assay: Inhibition of SKCa channel (unknown origin) at 10 uM relative to control
Homo sapiens [10] = organism: Homo sapiens; assay: Inhibition of central BZD receptor (unknown origin) at 10 uM relative to control
[11] = biological target: Peroxisome proliferator-activated receptor gamma (Homo sapiens) (UniProt P37231); assay: Inhibition of human PPARgamma at 10 uM relative to control
[12] = biological target: 5-hydroxytryptamine receptor 6 (Homo sapiens) (UniProt P50406); assay: Inhibition of human 5-HT6 receptor at 10 uM relative to control
[13] = biological target: Kappa-type opioid receptor (Homo sapiens, UniProt P41145); assay: Inhibition of human kappa opioid receptor at 10 uM relative to control
[14] = biological target: Alpha-1B adrenergic receptor (Homo sapiens) (UniProt P35368); assay: Inhibition of human alpha 1B receptor at 10 uM relative to control
[15] = biological target: Vasopressin V2 receptor (Homo sapiens) (UniProt P30518); assay: Inhibition of human V2 receptor at 10 uM relative to control
[16] = biological target: Alpha-1A adrenergic receptor (Homo sapiens) (UniProt P35348); assay: Inhibition of human alpha 1A receptor at 10 uM relative to control
[17] = biological target: Gamma-aminobutyric acid receptor subunit beta-1 (Homo sapiens) (UniProt P18505); assay: Inhibition of human GABA beta 1b at 10 uM relative to control
[18] = biological target: 72 kDa type IV collagenase (Homo sapiens) (UniProt P08253); assay: Inhibition of human MMP-2 at 10 uM relative to control
[19] = Aqueous solubility of compound; assay type: physicochemical; conditions: buffer
[20] = biological target: cGMP-inhibited 3',5'-cyclic phosphodiesterase 3B (Homo sapiens) (UniProt Q13370); assay: Inhibition of human PDE3B at 10 uM relative to control
Homo sapiens [21] = organism: Homo sapiens; assay: Inhibition of human CDK2/CycA at 10 uM relative to control
[22] = biological target: Androgen receptor (Homo sapiens) (UniProt P10275); assay: Inhibition of human AR at 10 uM relative to control
[23] = biological target: Tyrosine-protein kinase ZAP-70 (Homo sapiens) (UniProt P43403); assay: Inhibition of human ZAP70 kinase at 10 uM relative to control
[24] = biological target: Oxysterols receptor LXR-beta (Homo sapiens) (UniProt P55055); assay: Inhibition of human LXRbeta at 10 uM relative to control
[25] = biological target: Histamine H1 receptor (Homo sapiens) (UniProt P35367); assay: Inhibition of human H1 receptor at 10 uM relative to control
[26] = biological target: Vasopressin V1a receptor (Homo sapiens) (UniProt P37288); assay: Inhibition of human V1a at 10 uM relative to control
[27] = biological target: Histamine H4 receptor (Homo sapiens) (UniProt Q9H3N8); assay: Inhibition of human H4 receptor at 10 uM relative to control
[28] = biological target: 5-hydroxytryptamine receptor 4 (Homo sapiens) (UniProt Q13639); assay: Inhibition of human 5-HT4e receptor at 10 uM relative to control
Homo sapiens [29] = organism: Homo sapiens; assay: Inhibition of Ca2+ channel L, dihydropyridine site (unknown origin) at 10 uM relative to control
[30] = biological target: Insulin receptor (Homo sapiens) (UniProt P06213); assay: Inhibition of human IRK (InsR) at 10 uM relative to control
[31] = biological target: Neprilysin (Homo sapiens) (UniProt P08473); assay: Inhibition of human neutral endopeptidase at 10 uM relative to control
[32] = biological target: Endothelin-1 receptor (Homo sapiens) (UniProt P25101); assay: Inhibition of human ETA receptor at 10 uM relative to control
[33] = biological target: Glucagon receptor (Homo sapiens) (UniProt P47871); assay: Inhibition of human Glucagon receptor at 10 uM relative to control
[34] = biological target: Melanocyte-stimulating hormone receptor (Homo sapiens) (UniProt Q01726); assay: Inhibition of MC1 receptor (unknown origin) at 10 uM relative to control
[35] = biological target: B2 bradykinin receptor (Homo sapiens) (UniProt P30411); assay: Inhibition of human B2 receptor at 10 uM relative to control
[36] = biological target: Somatostatin receptor type 1 (Homo sapiens) (UniProt P30872); assay: Inhibition of human sst1 at 10 uM relative to control
[37] = biological target: Neuronal acetylcholine receptor; alpha4/beta2 (Homo sapiens) (UniProt P17787+P43681); assay: Inhibition of human N neuronal alpha4 beta2 receptor at 10 uM relative to control; assay type: protein-complex assay
[38] = biological target: 5-hydroxytryptamine receptor 7 (Homo sapiens) (UniProt P34969); assay: Inhibition of human 5-HT7 receptor at 10 uM relative to control
[39] = biological target: Melanocortin receptor 4 (Homo sapiens) (UniProt P32245); assay: Inhibition of human MC4 at 10 uM relative to control
[40] = biological target: Alpha-2C adrenergic receptor (Homo sapiens) (UniProt P18825); assay: Inhibition of human alpha 2C receptor at 10 uM relative to control
Homo sapiens [41] = organism: Homo sapiens; assay: Inhibition of human TR at 10 uM relative to control
[42] = biological target: Adenosine receptor A2b (Homo sapiens) (UniProt P29275); assay: Inhibition of human A2B receptor at 10 uM relative to control
[43] = biological target: Adenosine receptor A1 (Homo sapiens) (UniProt P30542); assay: Inhibition of human A1 receptor at 10 uM relative to control
Homo sapiens [44] = organism: Homo sapiens; assay: Inhibition of Ca2+ channel L, diltiazem site(unknown origin) at 10 uM relative to control
[45] = biological target: Prostaglandin E2 receptor EP2 subtype (Homo sapiens) (UniProt P43116); assay: Inhibition of human EP2 receptor at 10 uM relative to control
Homo sapiens [46] = organism: Homo sapiens; assay: Inhibition of human sigma receptor at 10 uM relative to control

Tyrosine-protein kinase ZAP-70 (Homo sapiens), sequence (P43403 whole entry): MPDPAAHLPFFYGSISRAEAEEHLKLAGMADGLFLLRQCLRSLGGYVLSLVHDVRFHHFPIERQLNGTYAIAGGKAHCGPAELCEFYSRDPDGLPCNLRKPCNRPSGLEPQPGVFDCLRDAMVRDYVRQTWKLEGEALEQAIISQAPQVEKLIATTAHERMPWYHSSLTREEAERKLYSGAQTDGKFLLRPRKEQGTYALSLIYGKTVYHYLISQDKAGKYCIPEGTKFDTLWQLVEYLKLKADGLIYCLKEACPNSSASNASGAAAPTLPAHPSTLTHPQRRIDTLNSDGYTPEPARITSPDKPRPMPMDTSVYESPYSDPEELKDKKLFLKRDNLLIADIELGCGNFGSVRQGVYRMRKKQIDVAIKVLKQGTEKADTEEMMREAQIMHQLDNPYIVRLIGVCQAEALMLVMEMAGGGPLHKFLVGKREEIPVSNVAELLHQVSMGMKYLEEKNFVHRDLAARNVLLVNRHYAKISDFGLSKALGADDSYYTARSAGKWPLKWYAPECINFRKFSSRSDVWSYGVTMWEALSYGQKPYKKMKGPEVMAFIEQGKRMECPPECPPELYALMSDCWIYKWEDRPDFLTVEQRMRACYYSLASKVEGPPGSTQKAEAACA
5-hydroxytryptamine receptor 6 (Homo sapiens), sequence (P50406 whole entry): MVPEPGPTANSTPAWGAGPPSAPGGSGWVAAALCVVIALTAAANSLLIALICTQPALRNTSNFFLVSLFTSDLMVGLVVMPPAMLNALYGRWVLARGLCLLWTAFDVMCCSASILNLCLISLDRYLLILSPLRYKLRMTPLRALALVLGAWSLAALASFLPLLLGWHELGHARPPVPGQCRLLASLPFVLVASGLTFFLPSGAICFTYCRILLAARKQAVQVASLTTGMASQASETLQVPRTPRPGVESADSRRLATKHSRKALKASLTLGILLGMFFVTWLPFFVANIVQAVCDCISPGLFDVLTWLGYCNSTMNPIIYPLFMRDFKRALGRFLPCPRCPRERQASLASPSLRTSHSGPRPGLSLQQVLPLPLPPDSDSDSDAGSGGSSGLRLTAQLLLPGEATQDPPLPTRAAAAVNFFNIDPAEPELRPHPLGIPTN
Oxysterols receptor LXR-beta (Homo sapiens), sequence (P55055 whole entry): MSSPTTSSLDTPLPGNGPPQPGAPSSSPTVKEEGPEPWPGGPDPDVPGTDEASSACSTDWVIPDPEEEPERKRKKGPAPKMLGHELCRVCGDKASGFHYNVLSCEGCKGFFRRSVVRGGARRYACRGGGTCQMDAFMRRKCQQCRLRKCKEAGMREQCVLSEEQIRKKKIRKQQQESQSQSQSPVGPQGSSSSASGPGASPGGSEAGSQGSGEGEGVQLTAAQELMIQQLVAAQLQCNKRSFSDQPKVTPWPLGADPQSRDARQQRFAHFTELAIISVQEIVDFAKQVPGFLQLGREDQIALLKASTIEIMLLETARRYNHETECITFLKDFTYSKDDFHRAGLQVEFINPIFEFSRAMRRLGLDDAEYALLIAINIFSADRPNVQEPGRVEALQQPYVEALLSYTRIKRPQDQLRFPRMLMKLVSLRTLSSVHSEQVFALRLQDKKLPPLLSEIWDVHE
Tyrosine-protein kinase ABL1 (Homo sapiens), sequence (P00519 whole entry): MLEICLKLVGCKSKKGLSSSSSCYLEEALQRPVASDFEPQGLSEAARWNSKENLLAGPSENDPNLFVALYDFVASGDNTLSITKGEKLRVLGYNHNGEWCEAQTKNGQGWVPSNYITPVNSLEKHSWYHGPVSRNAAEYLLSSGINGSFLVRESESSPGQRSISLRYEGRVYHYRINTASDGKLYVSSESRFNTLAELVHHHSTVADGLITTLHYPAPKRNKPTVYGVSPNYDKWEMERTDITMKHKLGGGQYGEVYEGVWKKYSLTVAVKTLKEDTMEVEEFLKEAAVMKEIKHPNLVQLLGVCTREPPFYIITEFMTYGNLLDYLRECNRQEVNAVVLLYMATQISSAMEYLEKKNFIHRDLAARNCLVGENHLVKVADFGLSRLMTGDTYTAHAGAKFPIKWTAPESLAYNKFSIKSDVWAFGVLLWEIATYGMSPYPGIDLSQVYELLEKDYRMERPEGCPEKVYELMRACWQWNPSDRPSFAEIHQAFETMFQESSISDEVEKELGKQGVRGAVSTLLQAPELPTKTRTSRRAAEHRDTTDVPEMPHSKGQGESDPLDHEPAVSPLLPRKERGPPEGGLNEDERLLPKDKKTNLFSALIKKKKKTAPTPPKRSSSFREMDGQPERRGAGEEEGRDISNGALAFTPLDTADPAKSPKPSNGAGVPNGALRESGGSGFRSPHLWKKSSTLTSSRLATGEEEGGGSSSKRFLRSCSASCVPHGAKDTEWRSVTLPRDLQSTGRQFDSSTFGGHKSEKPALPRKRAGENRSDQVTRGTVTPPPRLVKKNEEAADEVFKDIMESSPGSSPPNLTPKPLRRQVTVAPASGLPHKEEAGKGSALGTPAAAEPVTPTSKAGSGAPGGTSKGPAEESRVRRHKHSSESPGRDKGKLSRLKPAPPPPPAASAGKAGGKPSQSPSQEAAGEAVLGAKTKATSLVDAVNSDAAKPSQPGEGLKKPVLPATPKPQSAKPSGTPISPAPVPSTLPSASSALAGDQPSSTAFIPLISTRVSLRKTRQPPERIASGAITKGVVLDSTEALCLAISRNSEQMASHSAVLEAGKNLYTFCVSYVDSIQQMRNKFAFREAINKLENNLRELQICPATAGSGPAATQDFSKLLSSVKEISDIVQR
Alpha-2C adrenergic receptor (Homo sapiens), sequence (P18825 whole entry): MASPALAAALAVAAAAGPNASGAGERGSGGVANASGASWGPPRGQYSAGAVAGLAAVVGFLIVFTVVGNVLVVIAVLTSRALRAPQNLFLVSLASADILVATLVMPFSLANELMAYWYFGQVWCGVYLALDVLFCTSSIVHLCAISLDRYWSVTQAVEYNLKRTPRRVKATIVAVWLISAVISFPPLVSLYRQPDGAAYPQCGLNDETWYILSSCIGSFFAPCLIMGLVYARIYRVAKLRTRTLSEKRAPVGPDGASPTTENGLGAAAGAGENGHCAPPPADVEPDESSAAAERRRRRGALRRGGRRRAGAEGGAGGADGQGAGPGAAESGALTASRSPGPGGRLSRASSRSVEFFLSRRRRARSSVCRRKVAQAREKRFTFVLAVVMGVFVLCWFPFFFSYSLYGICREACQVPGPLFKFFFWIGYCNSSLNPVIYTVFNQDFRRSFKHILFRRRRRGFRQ
Adenosine receptor A1 (Homo sapiens), sequence (P30542 whole entry): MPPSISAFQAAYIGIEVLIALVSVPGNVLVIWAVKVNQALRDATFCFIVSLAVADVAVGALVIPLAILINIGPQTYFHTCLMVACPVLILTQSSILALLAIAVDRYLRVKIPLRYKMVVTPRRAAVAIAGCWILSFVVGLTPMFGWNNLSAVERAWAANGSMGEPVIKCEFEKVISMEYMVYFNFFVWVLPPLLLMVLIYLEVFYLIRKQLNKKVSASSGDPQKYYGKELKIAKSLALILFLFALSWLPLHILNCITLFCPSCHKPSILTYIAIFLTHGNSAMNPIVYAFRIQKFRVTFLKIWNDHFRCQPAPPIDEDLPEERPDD
5-hydroxytryptamine receptor 4 (Homo sapiens), sequence (Q13639 whole entry): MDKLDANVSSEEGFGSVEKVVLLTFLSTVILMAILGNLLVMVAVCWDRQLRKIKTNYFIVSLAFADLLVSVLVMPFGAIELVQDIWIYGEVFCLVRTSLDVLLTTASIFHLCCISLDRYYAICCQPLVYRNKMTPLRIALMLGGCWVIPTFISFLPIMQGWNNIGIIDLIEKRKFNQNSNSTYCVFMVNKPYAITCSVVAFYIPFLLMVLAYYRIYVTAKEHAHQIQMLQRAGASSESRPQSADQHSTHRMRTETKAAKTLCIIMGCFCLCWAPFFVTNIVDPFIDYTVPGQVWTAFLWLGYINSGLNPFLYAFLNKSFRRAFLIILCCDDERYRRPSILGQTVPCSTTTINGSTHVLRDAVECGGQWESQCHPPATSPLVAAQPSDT
Melanocyte-stimulating hormone receptor (Homo sapiens), sequence (Q01726 whole entry, looked up): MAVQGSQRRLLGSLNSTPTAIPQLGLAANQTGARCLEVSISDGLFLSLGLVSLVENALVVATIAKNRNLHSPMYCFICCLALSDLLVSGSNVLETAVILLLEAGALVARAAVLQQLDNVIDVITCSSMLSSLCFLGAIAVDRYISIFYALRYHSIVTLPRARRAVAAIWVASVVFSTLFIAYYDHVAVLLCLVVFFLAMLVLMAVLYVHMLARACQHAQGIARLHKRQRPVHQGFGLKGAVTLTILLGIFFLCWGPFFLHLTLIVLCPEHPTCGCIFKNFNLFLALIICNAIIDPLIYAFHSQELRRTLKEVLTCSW
Mu-type opioid receptor (Homo sapiens), sequence (P35372 whole entry): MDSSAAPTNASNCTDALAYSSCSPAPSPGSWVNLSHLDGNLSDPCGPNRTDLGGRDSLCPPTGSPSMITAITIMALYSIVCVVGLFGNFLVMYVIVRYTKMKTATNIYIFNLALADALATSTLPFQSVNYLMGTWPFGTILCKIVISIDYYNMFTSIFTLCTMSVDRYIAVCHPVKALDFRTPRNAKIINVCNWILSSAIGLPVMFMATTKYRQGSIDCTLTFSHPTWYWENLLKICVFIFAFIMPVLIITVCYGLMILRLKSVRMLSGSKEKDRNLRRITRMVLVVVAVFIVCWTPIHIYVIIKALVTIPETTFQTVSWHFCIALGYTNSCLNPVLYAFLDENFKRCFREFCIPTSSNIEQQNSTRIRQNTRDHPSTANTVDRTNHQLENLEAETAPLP
Somatostatin receptor type 1 (Homo sapiens), sequence (P30872 whole entry): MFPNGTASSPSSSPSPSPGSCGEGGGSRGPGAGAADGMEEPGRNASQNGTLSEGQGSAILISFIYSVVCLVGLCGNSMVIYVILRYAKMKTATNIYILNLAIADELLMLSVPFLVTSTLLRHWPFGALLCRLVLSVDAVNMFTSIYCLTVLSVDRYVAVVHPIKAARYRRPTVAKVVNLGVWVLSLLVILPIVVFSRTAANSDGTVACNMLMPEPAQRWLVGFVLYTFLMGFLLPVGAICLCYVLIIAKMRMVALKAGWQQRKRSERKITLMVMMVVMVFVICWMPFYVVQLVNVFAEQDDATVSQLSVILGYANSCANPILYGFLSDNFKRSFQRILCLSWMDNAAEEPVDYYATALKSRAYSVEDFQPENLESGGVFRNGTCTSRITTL

SMILES: O=C([C@@H](Cc1cccc(C(F)(F)F)c1)NS(=O)(=O)c1cc(F)c2c(c1)CCNC2)N1CCCC1
- inhibition [1]: 15%
- inhibition [2]: 5%
- inhibition [3]: 47%
- inhibition [4]: 0%
- inhibition at 10 µM [5]: 4%
- inhibition [6]: 14%
- inhibition [7]: 1%
- inhibition [8]: 9%
- inhibition (Homo sapiens [9]): 5%
- inhibition (Homo sapiens [10]): 11%
- inhibition [11]: 7%
- inhibition [12]: -8%
- inhibition [13]: 55%
- inhibition [14]: 29%
- inhibition [15]: 11%
- inhibition [16]: -3%
- inhibition [17]: 5%
- inhibition [18]: 15%
- solubility [19]: 285 µM (≈ 142 µg/mL)
- inhibition [20]: -5%
- inhibition (Homo sapiens [21]): -1%
- inhibition [22]: 1%
- inhibition [23]: 13%
- inhibition [24]: 5%
- inhibition [25]: 10%
- inhibition [26]: 8%
- inhibition [27]: -2%
- inhibition [28]: -4%
- inhibition (Homo sapiens [29]): -10%
- inhibition [30]: 0%
- inhibition [31]: -6%
- inhibition [32]: 10%
- inhibition [33]: 1%
- inhibition [34]: 16%
- inhibition [35]: 0%
- inhibition [36]: 5%
- inhibition [37]: -4%
- inhibition [38]: 41%
- inhibition [39]: 15%
- inhibition [40]: 10%
- inhibition (Homo sapiens [41]): 5%
- inhibition [42]: -3%
- inhibition [43]: -10%
- inhibition (Homo sapiens [44]): 52%
- inhibition [45]: -1%
- inhibition (Homo sapiens [46]): 49%
